The test system of test [1] is MIA PaCa-2 cells (K-Ras G12C). Briefly: Ras-SOS cellular growth inhibition assay (CellTiter-Glo, 3D). It is filed as cell-based. The essentials:
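MIA PaCa-2 cells grown in ultra-low-attachment plates (3D) in DMEM/Ham's F12 with 10% FCS and 2.5% horse serum, treated the day after seeding with a 9-point 3-fold compound series for about 5 days. Viability by CellTiter-Glo luminescence; IC50 from four-parameter fit.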

Test [2] has as its target SOS1 (Homo sapiens (Human), UniProt Q07889). In words: Ras-SOS interaction assay (HTRF). It is filed as biochemical. (TR-FRET usually uses a lanthanide donor and a delayed reading to cut background.)
In test [3] the test system is NCI-H1975 cells (EGFR T790M L858R). In words: EGFR-SOS cellular inhibition assay (CellTiter-Glo, 3D). It is filed as cell-based. For orientation: Cellular ATP, detected with luciferase, serves as a proxy for viable cell number.
[4] abbreviates: Homo sapiens, MIA PaCa-2, 120 h, MIA PaCa-2, 3D proliferation, about 5 days, read-out: Bio-Cell-Prolif-3D (MiaPaca2 IC50).
[5] abbreviates: Homo sapiens, MIA PaCa-2, MIA PaCa-2, read-out: IC50 in inhibiting MIA PaCa-2 cell growth.
[6] abbreviates: K-RasG13D utilized, read-out: IC50 inhibition of SOS.
[7] abbreviates: K-RasG13D, read-out: IC50 value against SOS1.
Setting [8] is: Homo sapiens, 120 h, NCI-H1975, 3D proliferation, about 5 days, read-out: Bio-Cell-Prolif-3D (H1975 IC50).
The mark [9] stands for this setting: Homo sapiens, NCI-H1975, EGFR T790M L858R, read-out: IC50 in inhibiting growth of NCI-H1975 cell line.

Read-outs that look alike come from different tables or passages of the source.

On to `Cc1nc(N[C@H](C)c2cccc(C(F)F)c2F)c2cc(N3CCN(C(C)C)CC3)c(OC3COC3)nc2n1` [Compound 336, (R)-N-(1-(3-(difluoromethyl)-2-fluorophenyl)ethyl)-6-(4-isopropylpiperazin-1-yl)-2-methyl-7-(oxetan-3-yloxy)pyrido [2,3-d]pyrimidin-4-amine], for which the IC50 – broadly, the concentration that inhibits the measured activity by half – in test [1] (setting [4]) was at most 1000 nM; in test [1] (setting [5]), below 500 nM; in test [2] (setting [6]), below 100 nM; in test [2] (setting [7]) it was below 50 nM; in test [3] (setting [8]), at most 1000 nM; in test [3] (setting [9]), below 500 nM.
Take `COc1nc2nc(C)nc(N[C@H](C)c3cccc(C(F)F)c3F)c2cc1S(=O)(=O)C1CCN(C)CC1` [Compound 133, (R)-N-(1-(3-(difluoromethyl)-2-fluorophenyl)ethyl)-7-methoxy-2-methyl-6-((1-methylpiperidin-4-yl)sulfonyl)pyrido[2,3-d]pyrimidin-4-amine]: the IC50 in test [1] (setting [4]) is at most 1000 nM; in test [1] (setting [5]) it was below 500 nM; in test [2] (setting [6]) it was below 100 nM; in test [2] (setting [7]), below 50 nM; in test [3] (setting [8]), at most 1000 nM; in test [3] (setting [9]), below 500 nM.
On to `COCCOc1nc2nc(C)nc(N[C@H](C)c3cccc(C(F)F)c3F)c2cc1C1CCS(=N)(=O)CC1` (stereo partly drawn) [Compound 368, (R)-4-(4-((1-(3-(difluoromethyl)-2-fluorophenyl)ethyl)amino)-7-(2-methoxyethoxy)-2-methylpyrido[2,3-d]pyrimidin-6-yl)-1-iminohexahydro-1l6-thiopyran 1-oxide], for which the IC50 in test [1] (setting [4]) was 1000 to 10000 nM; in test [2] (setting [6]) it was below 100 nM; in test [2] (setting [7]), below 50 nM; in test [3] (setting [8]) it was at most 1000 nM; in test [3] (setting [9]), below 500 nM.
As to `Cc1nc(N[C@H](C)c2cccc(C(F)(F)F)c2F)c2cc(C3(C#N)CC3)c(N3CCN(C(C)C)CC3)nc2n1` [Compound 346, (R)-1-(4-((1-(2-fluoro-3-(trifluoromethyl)phenyl)ethyl)amino)-7-(4-isopropylpiperazin-1-yl)-2-methylpyrido[2,3-d]pyrimidin-6-yl)cyclopropane-1-carbonitrile], the IC50 in test [1] (setting [4]) was at most 1000 nM; in test [1] (setting [5]) it was below 500 nM; in test [2] (setting [6]) it was below 100 nM; in test [2] (setting [7]), below 50 nM; in test [3] (setting [8]), at most 1000 nM; in test [3] (setting [9]), below 500 nM.
Consider `COc1nc2nc(C)nc(N[C@H](C)c3cccc(C(F)(F)F)c3F)c2cc1N1CCN(C)CC1` [Compound 349, (R)-N-(1-(2-fluoro-3-(trifluoromethyl)phenyl)ethyl)-7-methoxy-2-methyl-6-(4-methylpiperazin-1-yl)pyrido[2,3-d]pyrimidin-4-amine], for which the IC50 in test [1] (setting [4]) was at most 1000 nM; in test [1] (setting [5]), below 500 nM; in test [2] (setting [6]), below 100 nM; in test [2] (setting [7]), below 50 nM; in test [3] (setting [8]), at most 1000 nM; in test [3] (setting [9]) it was below 500 nM.
Turning to “((R)-1,4-dioxan-2-yl)(4-(4-(((R)-1-(2-fluoro-3-(trifluoromethyl)-phenyl)ethyl)amino)-7-methoxy-2-methylpyrido[2,3-d]pyrimidin-6-yl)piperazin-1-yl)methanone [Compound 303]”, the IC50 in test [1] (MIA PaCa-2, 3D proliferation, about 5 days, read-out: Bio-Cell-Prolif-3D (MiaPaca2 IC50)) is at most 1000 nM; in test [2] (setting [6]), below 100 nM; in test [2] (setting [7]), below 50 nM; in test [3] (NCI-H1975, 3D proliferation, about 5 days, read-out: Bio-Cell-Prolif-3D (H1975 IC50)), at most 1000 nM; in test [3] (NCI-H1975, EGFR T790M L858R, read-out: IC50 in inhibiting growth of NCI-H1975 cell line), below 500 nM.
With `CCN1CCC(c2cc3c(N[C@H](C)c4cccc(C(F)F)c4F)nc(C)nc3nc2OCCN(C)C)CC1` [Compound 399, (R)-N-(1-(3-(difluoromethyl)-2-fluorophenyl)ethyl)-7-(2-(dimethylamino)ethoxy)-6-(1-ethylpiperidin-4-yl)-2-methylpyrido[2,3-d] pyrimidin-4-amine], the IC50 in test [1] (setting [4]) was 1000 to 10000 nM; in test [2] (setting [6]), below 100 nM; in test [2] (setting [7]) it was below 50 nM; in test [3] (setting [8]), at most 1000 nM.
Take `Cc1nc(N[C@H](C)c2cccc(C(F)F)c2F)c2cc(C3(C#N)CC3)c(OC3CCN(C)CC3)nc2n1` [Compound 232, (R)-1-(4-((1-(3-(difluoromethyl)-2-fluorophenyl)ethyl)amino)-2-methyl-7-((1-methylpiperidin-4-yl)oxy)pyrido [2,3-d]pyrimidin-6-yl)cyclopropane-1-carbonitrile]: the IC50 in test [1] (setting [4]) is at most 1000 nM; in test [1] (setting [5]) it was below 500 nM; in test [2] (setting [6]), below 100 nM; in test [2] (setting [7]) it was below 50 nM; in test [3] (setting [8]) it was at most 1000 nM; in test [3] (setting [9]), below 500 nM.
`COc1nc2ncnc(N[C@H](C)c3cccc(C(F)F)c3F)c2cc1C1(C#N)CCS(=O)(=O)CC1` [Compound 342, (R)-4-(4-((1-(3-(difluoromethyl)-2-fluorophenyl)ethyl)amino)-7-methoxypyrido[2,3-d]pyrimidin-6-yl)tetrahydro-2H-thiopyran-4-carbonitrile 1,1-dioxide]: the IC50 in test [1] (setting [4]) was at most 1000 nM; in test [2] (setting [6]), below 100 nM; in test [2] (setting [7]) it was below 50 nM; in test [3] (setting [8]) it was at most 1000 nM; in test [3] (setting [9]), below 500 nM.
Take `COc1nc2nc(C)nc(N[C@H](C)c3cccc(C(F)(F)CO)c3F)c2cc1N1CCN(C(C)C)CC1` [Compound 181, (R)-2,2-difluoro-2-(2-fluoro-3-(1-((6-(4-isopropylpiperazin-1-yl)-7-methoxy-2-methylpyrido[2,3-d]pyrimidin-4-yl)amino)ethyl)phenyl)ethan-1-ol]: the IC50 in test [1] (setting [4]) is at most 1000 nM; in test [1] (setting [5]), below 500 nM; in test [2] (setting [6]), below 100 nM; in test [2] (setting [7]), below 50 nM; in test [3] (setting [8]), at most 1000 nM; in test [3] (setting [9]) it was below 500 nM.
In the case of `COc1nc2nc(C)nc(N[C@H](C)c3cccc(C(F)(F)F)c3F)c2cc1C1CCN(C(=O)CO)CC1` [Compound 304, (R)-1-(4-(4-((1-(2-fluoro-3-(trifluoromethyl)phenyl)ethyl)amino)-7-methoxy-2-methylpyrido[2,3-d]pyrimidin-6-yl)piperidin-1-yl)-2-hydroxyethan-1-one], the IC50 in test [1] (setting [4]) is at most 1000 nM; in test [1] (setting [5]), below 500 nM; in test [2] (setting [6]) it was below 100 nM; in test [2] (setting [7]) it was below 50 nM; in test [3] (setting [8]), at most 1000 nM; in test [3] (setting [9]) it was below 500 nM.
`CNc1nc2nc(C)nc(N[C@H](C)c3cccc(C(F)F)c3F)c2cc1C1CCS(=O)(=O)CC1` [Compound 136, (R)-4-(4-((1-(3-(difluoromethyl)-2-fluorophenyl)ethyl)amino)-2-methyl-7-(methylamino)pyrido[2,3-d]pyrimidin-6-yl)tetrahydro-2H-thiopyran 1,1-dioxide]: the IC50 is at most 1000 nM in test [1] (setting [4]); below 500 nM in test [1] (setting [5]); below 100 nM in test [2] (setting [6]); below 50 nM in test [2] (setting [7]); at most 1000 nM in test [3] (setting [8]); below 500 nM in test [3] (setting [9]).
Consider `Cc1nc(N[C@H](C)c2cccc(C(F)F)c2F)c2cc(C3CCS(=O)(=O)CC3)c(OC3CN(C)C3)nc2n1` [Compound 191, (R)-4-(4-((1-(3-(difluoromethyl)-2-fluorophenyl)ethyl)amino)-2-methyl-7-((1-methylazetidin-3-yl)oxy)pyrido[2,3-d]pyrimidin-6-yl)tetrahydro-2H-thiopyran 1,1-dioxide], for which the 50% inhibitory concentration (IC50) in test [1] (setting [4]) is 1000 to 10000 nM; in test [2] (setting [6]), below 100 nM; in test [2] (setting [7]) it was below 50 nM; in test [3] (setting [8]), 1000 to 10000 nM.

The values above are taken from patent publication US11648254B2 (Kumquat Biosciences Inc., priority 2021, dated 2023).
